Assay [1] relates to visna virus (strain K184). The assay can be described thus: CPE inhibition test (established monolayer) for lentiviruses. In kind it is cell-based. The note with it: minimum concentration giving complete protection of the cell monolayers. The method, then: 3 x 10⁴ sheep choroid plexus (SCP) cells were plated into individual wells of a 96 well microtitre plate in 100»l of Eagle's MEM with Hanks salts containing 10% heat inactivated foetal calf serum (FCS). When monolayers had become established (after 1 or 2 days growth) they were washed with 200»l of maintenance medium (Eagle's MEM with Hanks salts containing 0.5% FCS) and infected with 100»l of visna virus (strain K184) in maintenance medium (30 TCID₅₀/ml). Test samples were diluted with maintenance medium in further 96 well microtitre plates over the range 200-0.09»g/ml by 3-fold dilution steps. 100»l of the diluted samples was then transferred directly onto virus-infected monolayers (final concentration range therefore 100-0.045»g/ml) and incubated at 37°C in a humidified, 5% CO₂ incubation until virus-induced CPE was maximal in the untreated virus-infected controls (usually 12-14 days). The plates were fixed with formal saline and stained with crystal violet. Virus-induced CPE was then scored microscopically and the minimum concentration of sample giving complete protection of the cell monolayers (MIC) determined.

The subject of assay [2] is herpes simplex virus 1 (HSV-1; strain HFEM). The assay can be described thus: Plaque reduction test for herpes simplex virus 1. The following applies: Human alphaherpesvirus 1, Vero, HFEM strain in Vero cells; each figure is the value obtained in a single test; read-out: IC₅₀ Herpes Simplex Type 1 virus HFEM strain in Vero cells. Format: cell-based. The method, then: (§1) Cells (Vero or MRC-5) were grown to confluence in 24 well multi-dishes (well diameter = 1.5cm). The drained cell monolayers were each infected with approximately 50 infectious particles of herpes simplex virus 1 (HSV-1; strain HFEM) or herpes simplex virus 2 (HSV-2; strain MS) in 100»l of phosphate-buffered saline. The virus was adsorbed for 1 hour at room temperature. After adsorption, residual inoculum was removed from each well and replaced with 0.5ml of Eagle's MEM containing 5% newborn calf serum and 0.9% agarose (A37). Once the agarose had set, dilutions of the test compound, which had been prepared in Eagle's MEM (containing 5% newborn calf serum), were added, each well receiving 0.5ml of liquid overlay. The test compound was diluted to give the following series of concentrations: 200, 60, 20, 6....0.06»g/ml; final concentrations in the assay ranged, therefore, between 100»g/ml and 0.03»g/ml. The infected cultures were incubated at 37°C in a humidified atmosphere of 5% CO₂ until plaques were clearly visible (2 or 3 days for Vero cells, usually 1 day for MRC-5 cells).
(§2) Cultures from 1 and 2 were fixed in formal saline, the agarose overlays were carefully washed off, and then the cell monolayers were stained with carbol fuchsin. A stereo microscope was used to count plaques. The IC₅₀ (concentration of drug which inhibits plaque number by 50% relative to the number of plaques observed in virus control monolayers) of the test compound was calculated. In addition, the monolayers were examined for evidence of drug-induced cytotoxicity; the minimum concentration at which cytotoxicity occurs was recorded.

Assay [3] concerns herpes simplex virus 2 (HSV-2; strain MS). The assay can be described thus: Plaque reduction test for herpes simplex virus 2. The note with it: each figure is the value obtained in a single test. Format: cell-based, Herpes Simplex Type 2 virus. The method, then: as §1, §2
Assay [4] relates to herpes simplex virus 1, strain SC16. Briefly: CPE inhibition test (replicating cells) for herpes simplex virus 1. The following applies: Human alphaherpesvirus 1, SC16, MRC5, SC16 strain in MRC-5 cells; each figure is the value obtained in a single test; read-out: IC₅₀ Herpes Simplex Type 1 virus SC16 strain in MRC-5 cells. Format: cell-based. The source says:
MRC-5 cells (in Eagles MEM containing 5% newborn calf serum) were infected in suspension with herpes simplex virus 1, strain SC16 (approximately one infectious particle per 10 cells). One hundred microlitres of the infected cell suspension (containing approximately 2 x 10⁴ cells) were dispensed into each well of a 96 well microtitre plate containing an equal volume of the test drug in medium (Eagles MEM containing 5% newborn calf serum) at concentrations ranging from 200 to 0.09»g/ml (3-fold dilution steps); final concentrations therefore ranged between 100 to 0.045»g/ml. The plates were then incubated at 37°C in a humidified atmosphere of 5% CO₂ for 3 days when the virus-induced cytopathic effect (CPE) in the control wells reached 100%. The plates were fixed in formal saline and stained with carbol fuchsin. […] Plates of uninfected cells were set up in parallel to determined the minimum concentration of test compound which caused cytotoxicity.

Assay [5] deals with varicella zoster virus (VZV; Ellen strain). Briefly: Plaque reduction test for varicella zoster virus. Format: cell-based. The following applies: Human alphaherpesvirus 3, MRC5, Ellen strain in MRC-5 cells; each figure is the value obtained in a single test; read-out: IC₅₀ Varicella Zoster virus Ellen strain in MRC-5 cells. The procedure: MRC-5 cells were grown to confluence in 24 well multi-dishes (well diameter = 1.5cm). The drained cell monolayers were each infected with approximately 50 infectious particles of varicella zoster virus (VZV; Ellen strain) in 100»l of phosphate-buffered saline. The virus was adsorbed for 1 hour at room temperature. After adsorption, residual inoculum was removed from each well and replaced with 0.5ml of Eagle's MEM containing 5% heat-inactivated foetal calf serum and 0.9% agarose (A37). Once the agarose had set, dilutions of the test compound, which had been prepared in Eagle's MEM (containing 5% heat-inactivated foetal calf serum), were added, each well receiving 0.5ml of liquid overlay. The test compound was diluted to give the following series of cencentrations: 200, 60, 20, 6....0.06»g/ml; final concentrations in the assay ranged, therefore, between 100»g/ml and 0.03»g/ml. The infected cultures were incubated at 37°C in a humidified atmosphere of 5% CO₂ until plaques were clearly visible (5 or 6 days).
as §2

[6] abbreviates: Human alphaherpesvirus 2, MRC5, MS strain in MRC-5 cells, read-out: IC₅₀ Herpes Simplex Type 2 virus MS strain in MRC-5 cells.
[7] abbreviates: Human alphaherpesvirus 2, Vero, MS strain in Vero cells, read-out: IC₅₀ Herpes Simplex Type 2 virus MS strain in Vero cells.

Converted amounts (≈) assume the structure as drawn. Read-outs that look alike come from different tables or passages of the source.

From EP0242482B1, “Antiviral purine derivatives and process for their preparation” (BEECHAM GROUP PLC, priority 1985, dated 1987) come the findings set out here.

Consider `Nc1nc2c(ncn2OCCCO)c(=O)[nH]1` [Example 1, 9-(3-Hydroxyprop-1-oxy)guanine], for which the “MIC Visna Virus K184 strain in SCP cells” value in assay [1] is listed as 3.0 »g/ml. Besides, the IC50 in assay [2] turned out to be 0.4 µg/mL (≈ 1.78 µM); in assay [3] (setting [6]), 0.1 µg/mL (≈ 0.444 µM); in assay [3] (setting [7]) it was 0.3 µg/mL (≈ 1.33 µM).

For `CC(=O)OCCCOn1cnc2c(=O)[nH]c(N)nc21` [Example 2, 9-(3-Acetoxyprop-1-oxy)guanine], the IC50 in assay [4] came to 0.4 µg/mL (≈ 1.5 µM); in assay [2] it was 4.3 µg/mL (≈ 16.1 µM); in assay [3] (setting [6]), 1.1 µg/mL (≈ 4.12 µM).

As to `Nc1nc2c(ncn2OCCCOC(=O)c2ccccc2)c(=O)[nH]1` [Example 3, 9-(3-Benzoyloxyprop-1-oxy)guanine], the IC50 in assay [4] amounted to 1.2 µg/mL (≈ 3.64 µM); in assay [2] it was 2.8 µg/mL (≈ 8.5 µM); in assay [3] (setting [6]), 2.1 µg/mL (≈ 6.38 µM).

Regarding `CCOc1nc(N)nc2c1ncn2OCCCO` [Example 4, 2-Amino-6-ethoxy-9-(3-hydroxyprop-1-oxy)purine], the IC50 in assay [5] was 21 µg/mL (≈ 82.9 µM); in assay [4] it was 100 µg/mL (≈ 395 µM); in assay [3] (setting [6]), 67 µg/mL (≈ 265 µM).

For the molecule `Nc1nc2c(ncn2OCC(CO)CO)c(=O)[nH]1` [Example 5, 9-(3-Hydroxy-2-hydroxymethylprop-1-oxy)guanine], the IC50 in assay [5] amounted to 2.9 µg/mL (≈ 11.4 µM); in assay [4], 1.8 µg/mL (≈ 7.05 µM); in assay [2], 1.5 µg/mL (≈ 5.88 µM); in assay [3] (setting [6]), 1.5 µg/mL (≈ 5.88 µM); in assay [3] (setting [7]), 1.5 µg/mL (≈ 5.88 µM). The “MIC Visna Virus K184 strain in SCP cells” value in assay [1] is recorded as 0.1 »g/ml.

Turning to `Nc1nc2c(ncn2OCC(O)CO)c(=O)[nH]1` (stereo not shown) [Example 6, 9-(2,3-Dihydroxyprop-1-oxy)guanine], the IC50 in assay [5] came out at 2.3 µg/mL (≈ 9.54 µM); in assay [4] it was 1.9 µg/mL (≈ 7.88 µM); in assay [2] it was 8.6 µg/mL (≈ 35.7 µM); in assay [3] (setting [6]), 0.7 µg/mL (≈ 2.9 µM); in assay [3] (setting [7]), 1.6 µg/mL (≈ 6.63 µM). Besides, the “MIC Visna Virus K184 strain in SCP cells” value in assay [1] is on record as 10 »g/ml.

As to `Nc1ncc2ncn(OCC(O)CO)c2n1` (stereo not shown) [Example 7, 2-Amino-9-(2,3-dihydroxyprop-1-oxy)purine], the IC50 came to 57 µg/mL (≈ 253 µM) in assay [5] and 100 µg/mL (≈ 444 µM) in assay [4].

Regarding `Nc1nc2c(ncn2OC(CO)CCO)c(=O)[nH]1` (stereo not shown) [Example 8, 9-(1,4-Dihydroxybut-2-oxy)guanine], the IC50 in assay [4] was determined as 11 µg/mL (≈ 43.1 µM). Further, in assay [1], the “MIC Visna Virus K184 strain in SCP cells” value is 30 »g/ml.

In the case of `CCCCCC(=O)OCCCOn1cnc2c(=O)[nH]c(N)nc21` [Example 11, 9-(3-Hexanoyloxyprop-1-oxy)guanine], the IC50 in assay [5] turned out to be 0.1 µg/mL (≈ 0.309 µM); in assay [4], 0.1 µg/mL (≈ 0.309 µM); in assay [2], 0.7 µg/mL (≈ 2.16 µM).

`Nc1nc2c(ncn2O[C@@H](CO)CCO)c(=O)[nH]1` [Example 14, (R)-9-(1,4-Dihydroxybut-2-oxy)guanine]: in assay [4], the IC50 turned out to be 100 µg/mL (≈ 392 µM).

Regarding `Nc1nc2c(ncn2O[C@H](CO)CCO)c(=O)[nH]1` [Example 15, (S)-9-(1,4-Dihydroxybut-2-oxy)guanine], the IC50 in assay [4] was 7.4 µg/mL (≈ 29 µM).
